Experimental findings from patent US8084502B2, “Use of agmatine for protection of retinal ganglion cells” (priority 2007, dated 2011) are described below.

Type in all cases: cell-based, rat
Experiment [1] concerns p38. The experiment can be described thus: Western blot, phospho-p38 in hypoxic RGC-5. The conditions noted are these: agmatine 100 μM, BDNF 10 ng/mL. How it is done:
(§1) The RGC-5 cell line, which is a RGC line developed from post-natal Sprague-Dawley rats, was grown in modified Dulbecco's Modified Eagle's Medium (DMEM; Gibco) supplemented with 10% of heat inactivated fetal bovine serum (Gibco) and 100 U/mL of penicillin and 100 μg/mL of streptomycin (Gibco). The cells were passaged every 2 to 3 days, and the cultures incubated at 37° C. in 5% of CO2 and air. […] For all experiments, cells were used at an 80% confluence. Cultures were transferred into a closed hypoxic chamber (Form a Scientific Co.) in which oxygen level (5% of O2, 5% of CO2, 90% of N2) and temperature (37° C.) were controlled. […] The protein concentrations in the resultant supernatants were measured with the Bradford reagent, and equal amounts of protein (40 μg) were boiled in Laemmli sample buffer, followed by being resolved by 10 or 15% SDS-PAGE. The proteins were transferred to polyvinylidene fluoride membranes (Immobilon; Millipore, Billerica, Mass.) and then probed overnight with antibodies against JNK, ERK p44/42, p38, NF-κB p65, phospho-JNK, phospho-ERK p44/42, phospho-p38, phospho-NF-κB, (3-actin and histone 3 as indicated (diluted 1:1000). The immunoreactive bands were detected with horseradish peroxidase-conjugated secondary antibodies and visualized by enhanced chemiluminescence.

Experiment [2] deals with ERK. Put plainly: Western blot, phospho-ERK in hypoxic RGC-5. The settings on record: agmatine 100 μM, BDNF 10 ng/mL. How it is done: as §1
In experiment [3] the test system is Total MAPKs (JNK, ERK, and p38). Put plainly: Western blot, total MAPKs in hypoxic RGC-5. How it is done: as §1
Experiment [4] concerns NF-κB. Put plainly: Western blot, NF-κB in nuclear and cytosolic fraction of hypoxic RGC-5. The settings on record: for increase in phospho-NF-κB, nuclear fraction / increase in total NF-κB expression, cytoplasmic fraction: hypoxia 1 hour; for total NF-κB and histone 3, nuclear fraction: hypoxic RGC-5. How it is done:
The RGC-5 cell line, which is a RGC line developed from post-natal Sprague-Dawley rats, was grown in modified Dulbecco's Modified Eagle's Medium (DMEM; Gibco) supplemented with 10% of heat inactivated fetal bovine serum (Gibco) and 100 U/mL of penicillin and 100 μg/mL of streptomycin (Gibco). The cells were passaged every 2 to 3 days, and the cultures incubated at 37° C. in 5% of CO2 and air. […] For all experiments, cells were used at an 80% confluence. Cultures were transferred into a closed hypoxic chamber (Form a Scientific Co.) in which oxygen level (5% of O2, 5% of CO2, 90% of N2) and temperature (37° C.) were controlled. After washing twice with deoxygenated serum-free DMEM, cells were maintained in the hypoxic chamber. Control cells were not exposed to hypoxia. Agmatine or BDNF were added to the culture medium at the start of injury as indicated. For fraction of cytosolic and nuclear proteins, cells were lysed with lysis buffer A (10 mM of HEPES (pH 7.4), 10 mM of KCl, 0.1 mM of EDTA, 0.1 mM of EGTA, 1 mM of DTT, 10 mM of Na3VO4, 50 mM of NaF, 1 mM of PMSF, 1 μg/mL of aprotinin, 1 μg/mL of leupeptin, 1 μg/mL of pepstatin) on ice for 15 minutes, and 10% of NP-40 was then added thereto. After vortexing for 10 seconds, lysates were centrifuged at 15,000 g at 4° C. for 1 minute. The supernatent was collected from the cytosolic fraction. The pellet was resuspended in lysis buffer C (20 mM of HEPES (pH 7.4), 400 mM of NaCl, 1 mM of EDTA, 1% of glycerol, 1 mM of DTT, 10 mM of Na3VO4, 50 mM of NaF, 1 mM of PMSF, 1 μg/mL of aprotinin, 1 μg/mL of leupeptin, 1 μg/mL of pepstatin) on ice for 30 minutes. Lysates were centrifuge at 15,000 g at 4° C. for 15 minutes. The supernatent was collected from the nuclear fraction. The protein concentrations in the resultant supernatants were measured with the Bradford reagent, and equal amounts of protein (40 μg) were boiled in Laemmli sample buffer, followed by being resolved by 10 or 15% SDS-PAGE. The proteins were transferred to polyvinylidene fluoride membranes (Immobilon; Millipore, Billerica, Mass.) and then probed overnight with antibodies against JNK, ERK p44/42, p38, NF-κB p65, phospho-JNK, phospho-ERK p44/42, phospho-p38, phospho-NF-κB, (3-actin and histone 3 as indicated (diluted 1:1000). The immunoreactive bands were detected with horseradish peroxidase-conjugated secondary antibodies and visualized by enhanced chemiluminescence.

The test system of experiment [5] is RGC-5. Put plainly: Annexin-V assay (flow cytometry), hypoxia-induced apoptosis. The settings on record: agmatine 100 μM or BDNF 10 ng/ml. How it is done: The RGC-5 cell line, which is a RGC line developed from post-natal Sprague-Dawley rats, was grown in modified Dulbecco's Modified Eagle's Medium (DMEM; Gibco) supplemented with 10% of heat inactivated fetal bovine serum (Gibco) and 100 U/mL of penicillin and 100 μg/mL of streptomycin (Gibco). The cells were passaged every 2 to 3 days, and the cultures incubated at 37° C. in 5% of CO2 and air. […] For all experiments, cells were used at an 80% confluence. Cultures were transferred into a closed hypoxic chamber (Form a Scientific Co.) in which oxygen level (5% of O2, 5% of CO2, 90% of N2) and temperature (37° C.) were controlled. After washing twice with deoxygenated serum-free DMEM, cells were maintained in the hypoxic chamber. Control cells were not exposed to hypoxia. Agmatine or BDNF were added to the culture medium at the start of injury as indicated. The percentage of cells actively undergoing apoptosis was determined by flow cytometry using the Annexin V-FITC Apoptosis Detection Kit (BD Biosciences, Cat no. 556547) according to the manufacturer's instructions. Briefly, cells were harvested and resuspended in binding buffer (10^6 cells/mL). 10^5 cells were mixed with 5 μL of annexin V-FITC and 5 μL of PI. After incubating at room temperature for 15 minutes in the dark, analysis was performed by flow cytometry.

Experiment [6] relates to JNK. Put plainly: Western blot, phospho-JNK in hypoxic RGC-5. The conditions noted are these: agmatine 100 μM, BDNF 10 ng/mL. How it is done:
as §1

Consider `N=C(N)NCCCCN` [agmatine], for which, in experiment [1], the “expression of phospho-p38” value is reported as “had no effect”. Moreover, in experiment [2], the “expression of phospho-ERKs” value is reported as “did not significantly affect”. Further, in experiment [3], the “Total MAPKs (JNK, ERK, and p38) and β-actin” value is reported as “no significant changes”. In experiment [4], the “increase in phospho-NF-κB, nuclear fraction” value is listed as “suppressed”; the “increase in total NF-κB expression, cytoplasmic fraction” value is reported as “inhibited”; the “total NF-κB and histone 3, nuclear fraction” value was “no significant changes”. In addition, in experiment [5] (hypoxia 12 hours), the “proportion of apoptotic cells” value is “no significant difference”. Also, the “proportion of apoptotic cells” value in experiment [5] (hypoxia 24 hours) is given as “significant decrease in apoptotic cells”. For the same molecule, the “hypoxia-induced expression of phospho-JNKs” value in experiment [6] is “significantly suppressed”.

With “BDNF: recombinant human BDNF (R&D System), well-known protective neurotrophin for RGCs, used as comparator”, in experiment [1], the “expression of phospho-p38” value was “only blocked the expression of phospho-p38 at 6 hours”. Besides, the “expression of phospho-ERKs” value in experiment [2] was “completely blocked the expression of phospho-ERKs after exposure to hypoxia for 3 and 6 hours, but had no effect thereafter”. In addition, the “Total MAPKs (JNK, ERK, and p38) and β-actin” value in experiment [3] is given as “no significant changes”. Besides, in experiment [4], the “increase in phospho-NF-κB, nuclear fraction” value was “not”; the “increase in total NF-κB expression, cytoplasmic fraction” value was “not”; the “total NF-κB and histone 3, nuclear fraction” value is on record as “no significant changes”. Also, the “proportion of apoptotic cells” value in experiment [5] (hypoxia 12 hours) is “no significant difference”. In addition, in experiment [5] (hypoxia 24 hours), the “proportion of apoptotic cells” value was “significant decrease in apoptotic cells”. Besides, the “hypoxia-induced expression of phospho-JNKs” value in experiment [6] was “not”.
